In patent publication US6750178B1, “Agrochemical composition” (Syngenta Limited, priority 1999, dated 2004):

Assays:
Type in all cases: in vivo
SIDSP = assay: Glass-house ED90 of paraquat dichloride plus adjuvant, SIDSP; settings: paraquat dichloride 15, 45, 135 and 270 g/ha paraquat ion; adjuvant 0.1% w/v; 18 days after treatment
[1] = test system: Soghinm halepenise(SORHA); assay: Glass-house ED90 of glyphosate salts, SORHA; settings: calculated dose for 90% control; rates 500-4000 glyphosate acid equivalent/ha; AL2042 0.25% w/v with all treatments; 22 days after treatment
From the text: This Example illustrates the use of salts of glyphosate acid and the adjuvants of Formula (I).
Glyphosate trimesium and the glyphosate salts of the indicated adjuvants of formula (I) were applied to Soghinm halepenise(SORHA) at 500, 1000, 2000 and 4000 glyphosate acid equivalent/ha. All treatments were made up in deionised water and applied using a tracksprayer with a 11002 nozzle at a spray application volume of 200 l/ha . All treatments were replicated 3 times. After spraying the plants were laid out in a glass-house and maintained at a temperature of 24° C. by day and 19° C. by night. A visual assessment of % control was carried out 22 days after treatment and calculated doses for 90% control (ED90) were derived. AL2042 alkylpolygylcoside was used at 0.25% w/v as additional surfactant with all treatments. It will be appreciated that a low ED90 value indicates high activity.

[2] = test system: Abutilon theophrasti (ABUTH); assay: Glass-house visual % control with potassium glyphosate plus adjuvant; settings: potassium glyphosate 500 g glyphosate acid equivalent/ha, adjuvant 0.2% w/v, 200 l/ha, 16 days after treatment, 0=unaffected, 100=complete kill
Description: Potassium glyphosate was applied at 500 g glyphosate acid equivalent/ha to Abutilon theophrasti (ABUTH) plants grown in the glass-house. All treatments were made up in deionised water and applied using a tracksprayer with a 11002 nozzle at a spray application volume of 200 l/ha . All treatments were replicated 4 times. After spraying the plants were laid out in a glass-house and maintained at a temperature of 24° C. by day and 19° C. by night. The JEFFAMINE adjuvants were used in a proportion 0.2% w/v. A visual assessment of % control, where 0=unaffected and 100=complete kill, was carried out 16 days after treatment.

[3] = test system: Ipomoea hederacea (IPOHE); assay: Glass-house visual % control with potassium glyphosate plus adjuvant, IPOHE; settings: potassium glyphosate 300 g glyphosate acid equivalent/ha, AL2042 0.2% w/v, CRODAFOS T5A salts 0.2% w/v phosphate ester acid equivalent, 16 days after treatment
From the text: This Example illustrates the use of a salt of ethoxy (5 moles of EO) isotridecyl phosphate, ester in the acid form (CRODAFOS T5A) with JEFFAMINE ED600. CRODAFOS T5A is a mixture of mono and di esters. CRODAFOS is a tradename of Croda.
Potassium glyphosate, in combination with the adjuvants specified below, was applied to Ipomoea hederacea (IPOHE) at 300 g glyphosate acid equivalent/ha. All treatments were made up in deionised water and applied using a tracksprayer with a 11002 nozzle at a spray application volume of 200 l/ha. All treatments were replicated 4 times. After spraying the plants were laid out in a glass-house and maintained at a temperature of 24° C. by day and 19° C. by night. A visual assessment of % control was carried out 16 days after treatment.
The AL2042 was applied at 0.2% w/v and the CRODAFOS T5A salts were applied at 0.2% w/v phosphate ester acid equivalent. The Crodafos T5A potassium salt was prepared by neutralising the phosphate ester in its acid form with potassium hydroxide to pH6. The CRODAFOS T5A JEFFAMINE ED600 salt was prepared by neutralising the phosphate ester in its acid form with JEFFAMINE ED600 to pH6.

Q: C[n+]1ccc(-c2cc[n+](C)cc2)cc1 [Control — No adjuvant, Paraquat dichloride] was tested. Which “ED90 SIDSP” value (SIDSP) did it give?
A: Its value is “(>270) g paraquat ion per litre”.

Q: How did the “SORHA — ED90” value [1] turn out when C[S+](C)C.O=C([O-])CNCP(=O)(O)O [Glyphosate trimesium] was run?
A: The value was 1410 gae/ha.

Q: What does the source list for O=C(O)CNCP(=O)([O-])O.[K+] [No adjuvant, Potassium glyphosate]?
A: % control [2]: 37%; IPOHE — % control [3]: 64%
